Assay results as given in patent publication US10106551B2, “Monothiol mucolytic agents” (PARION SCIENCES, INC., priority 2015, dated 2018).
Counter-ions that a name gives are not always drawn.

What was measured:
Format in all cases: biochemical
[1] = Pro-Drug DTNB assay with or without esterase; conditions: for Reduction Without Esterase / Reduction With Esterase: 22.5 μM prodrug, 100 μM DTNB; for Reduction Without Esterase: pH 7.5, no enzyme; for Reduction With Esterase: pH 7.5, porcine liver esterase
Description: The present invention provides a series of mucolytic pro-drugs (see R^6=other than H) that are activated by common enzymes that are present in the extracellular milieu (e.g., nucelotidases, phosphatases, and esterases). As a proof-of-concept, the reducing kinetics of the pro-drug compound 46 in the presence or absence of an activating esterase were tested.
This assay was designed to determine whether prodrug caps added on to our monothiol mucolytic compounds can be cleaved from the molecule. If so, the outcome would be an “active” compound that is able to reduce the S—S bond in DTNB. Similar to the activity concentration version of the DTNB assay described above, monothiol prodrugs were mixed at a final concentration of 22.5 μM with excess DTNB (100 μM final) in 1 mL 50 mM Tris-HCl buffer (pH 7.5) and maximum Abs412 was measured. In the absence of a purified hydrolytic enzyme (e.g. porcine liver esterase; Sigma), the amount of DTNB cleavage observed is an indicator for stability of the cap on the prodrug compound (i.e. if the prodrug remains intact in solution the Abs412=0). Next, 5 uL of esterase (bought as an ammonium sulfate suspension that is subsequently centrifuged to isolate the esterase and then dissolved in reaction buffer prior to assaying) is combined with excess DTNB (100 μM final) and 22.5 μM pro-drug in 1 mL 50 mM Tris-HCl buffer (pH 7.5). Cleavage of the prodrug cap can be visualized in real time via DTNB cleavage at Abs412 by the esterase-liberated monothiol molecule.

[2] = DTNB assay: rate of S-S bond reduction; conditions: pH 6; 22.5 μM reducing agent, 45 μM DTNB, 50 mM Tris-HCl
Text: Thiol-containing compounds, such as the monothiol mucolytic agents described in this patent, can react with DTNB (5,5-Dithiobis(2-nitrobenzoic acid)) resulting in the cleavage of its single S—S bond. The DTNB assay serves a dual purpose in our analysis of monothiol compounds, as it can (1) be used to determine the “active concentration” of the mucolytic compounds (what amount of the compound in a reaction is able to cleave S—S bonds) and (2) to assess the rate that the compound can cleave S—S bonds. When cleaved, the resulting compound, NTB (2-nitro-5-thiobenzoate), is a colored product that is measured spectrophotometrically at an absorbance of 412 nm (Abs412). Using the molar extinction coefficient of NTB and measured maximum Abs412, the molar amount of DTNB that reacted with our mucolytic agents can be calculated. Monothiol mucolytic compounds react at a 1:1 stoichiometric ratio with DTNB (i.e. 1 mole of NTB is produced when 1 mole of DTNB is reacted with 1 mole of a monothiol reducing agent). To define the activity concentration of a compound, a final concentration of 22.5 μM mucolytic reducing agent was combined with an excess of DTNB (100 μM) in 1 mL 50 mM Tris-HCl buffer (pH 7.5). Maximum Abs412 was measured and then utilized to calculate the activity concentration. If observed activity concentrations differed from expected activity concentrations by more than 5%, the amount of the compound added to each reaction was accordingly adjusted to kinetically test the reducing rate in the next step. To determine rate of mucolytic reducing activity, 22.5 μM active reducing agent is combined with 45 μM DTNB in 1 mL 50 mM Tris-HCl buffer over a pH range (6.0-7.5). Abs412 is recorded in real time upon addition of the compound and rates were calculated using 2nd order kinetic parameters.

[3] = target: T1, Muc5B (Homo sapiens, UniProt Q9HC84); assay: Mucin agarose gel western blot (saliva / mucus samples); conditions: for MUC5B reduction: human mucus samples
T1 construct: Various mucin-containing substrates (e.g. saliva, harvested HBE mucus, and disease sputum) treated with our monothiol mucolytic compounds; from tissue; host or cells: saliva; harvested HBE mucus; disease sputum
Description: Various mucin-containing substrates (e.g. saliva, harvested HBE mucus, and disease sputum) treated with our monothiol mucolytic compounds are quenched upon completion of the treatment period with a 10-fold excess of N-ethylmaleimide in order to alkylate any remaining active compound and to prevent further mucin reduction. A 10× concentrated sample loading buffer is diluted into each sample (1×TAE/5% glycerol/0.1% SDS/Bromophenol Blue). Samples ([…]) were analyzed by electrophoresis on 0.9% agarose gels using a buffer system consisting of 1×TAE/0.1% SDS. The agarose gel was soaked for 15 min in 4×SSC (0.6 M NaCl, 60 mM Tri-sodium citrate dehydrate) containing 10 mM DTT before transferring the samples from the gel onto a nitrocellulose membrane by vacuum blotter. Unreduced and reduced Muc5B were visualized on a LiCor Odyssey imaging detection system using a polyclonal antibody directed towards Muc5B.

SMILES	Reduction Without Esterase [1]	Reduction With Esterase [1]	DTNB reduction rate [2] [M⁻¹ s⁻¹]	also measured
Cl.O=C(SCc1cccc(OCCN(C[C@H](O)[C@@H](O)[C@H](O)[C@H](O)CO)C[C@H](O)[C@@H](O)[C@H](O)[C@H](O)CO)c1)c1ccco1 [Compound 9, S-3-(2-(bis((2S,3R,4R,5R)-2,3,4,5,6-pentahydroxyhexyl)amino)ethoxy)benzyl furan-2-carbothioate Hydrochloride]	No	Yes	–	–
Cl.O=C(SCc1cccc(OCCN(C[C@@H](O)[C@@H](O)[C@H](O)[C@H](O)CO)C[C@@H](O)[C@@H](O)[C@H](O)[C@H](O)CO)c1)c1ccco1 [Compound 10, S-3-(2-(bis((2R,3R,4R,5R)-2,3,4,5,6-pentahydroxyhexyl)amino)ethoxy)benzylfuran-2-carbothioate Hydrochloride]	No	Yes	–	–
CC(C)C(=O)SCc1cccc(OCCN(C[C@H](O)[C@@H](O)[C@H](O)[C@H](O)CO)C[C@H](O)[C@@H](O)[C@H](O)[C@H](O)CO)c1 [Compound 14, S-3-(2-(bis((2S,3R,4R,5R)-2,3,4,5,6-entahydroxyhexyl)amino)ethoxy)benzyl 2-methylpropanethioate Hydrochloride]	No	Yes	–	–
CC(C)C(=O)SCc1cccc(OCCN(C[C@@H](O)[C@@H](O)[C@H](O)[C@H](O)CO)C[C@@H](O)[C@@H](O)[C@H](O)[C@H](O)CO)c1.Cl [Compound 15a, S-3-(2-(bis((2R,3R,4R,5R)-2,3,4,5,6-pentahydroxyhexyl)amino)ethoxy)benzyl 2-methylpropanethioate Hydrochloride]	No	Yes	–	–
CC(=O)SCc1cccc(OCCN(C[C@H](O)[C@@H](O)[C@H](O)[C@H](O)CO)C[C@H](O)[C@@H](O)[C@H](O)[C@H](O)CO)c1.Cl [Compound 17, S-3-(2-(bis((2S,3R,4R,5R)-2,3,4,5,6-pentahydroxyhexyl)amino)ethoxy)benzyl Ethanethioate Hydrochloride]	No	Yes	–	–
CC(=O)SCc1cccc(OCCN(C[C@@H](O)[C@@H](O)[C@H](O)[C@H](O)CO)C[C@@H](O)[C@@H](O)[C@H](O)[C@H](O)CO)c1 [Compound 18, S-3-(2-(bis((2R,3R,4R,5R)-2,3,4,5,6-pentahydroxyhexyl)amino)ethoxy)benzyl Ethanethioate]	No	Yes	–	–
Cl.OC[C@@H](O)[C@@H](O)[C@H](O)[C@@H](O)CN(CCOc1cccc(CS)c1)C[C@H](O)[C@@H](O)[C@H](O)[C@H](O)CO [Compound 19, (2R,2′R,3R,3′R,4R,4′R,5S,5′S)-6,6′-((2-(3-(mercaptomethyl)phenoxy)ethyl)azanediyl)bis(hexane-1,2,3,4,5-pentaol) Hydrochloride]	–	–	182.52	–
Cl.OC[C@@H](O)[C@@H](O)[C@H](O)[C@H](O)CN(CCOc1cccc(CS)c1)C[C@@H](O)[C@@H](O)[C@H](O)[C@H](O)CO [Compound 20, (2R,2′R,3R,3′R,4R,4′R,5R,5′R)-6,6′-((2-(3-(mercaptomethyl)phenoxy)ethyl)azanediyl)bis(hexane-1,2,3,4,5-pentaol) Hydrochloride]	–	–	307.08	–
CCC(=O)SCc1cccc(OCCN(C[C@H](O)[C@@H](O)[C@H](O)[C@H](O)CO)C[C@H](O)[C@@H](O)[C@H](O)[C@H](O)CO)c1.Cl [Compound 24, S-3-(2-(bis((2S,3R,4R,5R)-2,3,4,5,6-pentahydroxyhexyl)amino)ethoxy)benzyl Propanethioate Hydrochloride]	No	Yes	–	–
CCC(=O)SCc1cccc(OCCN(C[C@@H](O)[C@@H](O)[C@H](O)[C@H](O)CO)C[C@@H](O)[C@@H](O)[C@H](O)[C@H](O)CO)c1.Cl [Compound 25, S-3-(2-(bis((2R,3R,4R,5R)-2,3,4,5,6-pentahydroxyhexyl)amino)ethoxy)benzyl Propanethioate Hydrochloride]	No	Yes	–	–
CC(=O)SCc1ccc(OCCCCCCN(C[C@H](O)[C@@H](O)[C@H](O)[C@H](O)CO)C[C@H](O)[C@@H](O)[C@H](O)[C@H](O)CO)cc1.Cl [Compound 46, S-4-((6-(bis((2S,3R,4R,5R)-2,3,4,5,6-pentahydroxyhexyl)amino)hexyl)oxy)benzyl Ethanethioate Hydrochloride]	No	Yes	–	reduction of disulfide bonds by pro-drug alone ([1]; absence of activating esterase): does not reduce disulfide; reaction rates on addition of activating enzyme ([1]; presence of activating esterase): concentration dependent increase in reaction rates; MUC5B reduction [3]: reduce MUC5B
Cl.OC[C@@H](O)[C@@H](O)[C@H](O)[C@@H](O)CN(CCCCCCOc1ccc(CS)cc1)C[C@H](O)[C@@H](O)[C@H](O)[C@H](O)CO [Compound 47, (2R,2′R,3R,3′R,4R,4′R,5S,5′S)-6,6′-((6-(4-(mercaptomethyl)phenoxy)hexyl)azanediyl)bis(hexane-1,2,3,4,5-pentaol) Hydrochloride]	–	–	211.3	time to fully reduce all available disulfides ([1]; parent molecule, same conditions as pro-drug test): < 10 s; reducing capacity relative to 76 (Muc5B) ([3]; FIG. 3): retain the reducing capacity of 76; MUC5B reduction [3]: reduce MUC5B
NCCCCCCOc1ccc(CS)cc1 [Compound 48]	–	–	190.8	–
Cl.OC[C@@H](O)[C@@H](O)[C@H](O)[C@H](O)CN(CCOc1ccc(CS)cc1)C[C@@H](O)[C@@H](O)[C@H](O)[C@H](O)CO [Compound 58, (2R,2′R,3R,3′R,4R,4′R,5R,5′R)-6,6′-((2-(4-(mercaptomethyl)phenoxy)ethyl)azanediyl)bis(hexane-1,2,3,4,5-pentaol) Hydrochloride]	–	–	258.31	–
CC(C)C(=O)SCc1ccc(OCCN(C[C@@H](O)[C@@H](O)[C@H](O)[C@H](O)CO)C[C@@H](O)[C@@H](O)[C@H](O)[C@H](O)CO)cc1.Cl [Compound 59, S-4-(2-(bis((2R,3R,4R,5R)-2,3,4,5,6-pentahydroxyhexyl)amino)ethoxy)benzyl 2-methylpropanethioate Hydrochloride]	No	Yes	–	–
CO[C@@H]1OC(CS)[C@H](O)C(O)C1O (some centres unmarked) [compound 95, reference compound]	–	–	–	Muc5b reduction ([3]; FIG. 4, 30 mM): partial Muc5b reduction
